For data set [1], the system named is A549. Description: In vitro anticancer activities of complexes (Experiment 2). The conditions noted are these: A549, 24 hours. Type of data set: cell-based, human. The text has this:
(§1) The cell lines used in the experiments were obtained from Peking University.

Another data set relates to A375. The description is as above. The conditions noted are these: A375, 24 hours. Type of data set: cell-based, human.
Description: as §1

In another data set the test system is SW480. The data set is described as above. In kind it is cell-based, human. The following applies: SW480, 24 hours.
Description: as §1

In data set [2] the test system is MCF7. Described as above. In kind it is cell-based, human. The following applies: MCF7, 24 hours.
Description: as §1

The subject of data set [3] is HeLa. Described as above. In kind it is cell-based, human. The conditions noted are these: 24 hours.
Description: as §1

For a further data set, the system named is HepG2. Described as above. The following applies: HepG 2, 24 hours. Type of data set: cell-based.
Description: as §1

The test system of data set [4] is normal colonic epithelial cells NCM460. The description is as above. Type of data set: cell-based. The conditions noted are these: NCM460, 24 hours.
Description: as §1

The next data set concerns human microglia CHEM5. The data set is described as above. Type of data set: cell-based. The conditions noted are these: CHEM 5, 24 hours.
Description: as §1

The test system of data set [5] is human umbilical vein endothelial cells HUVEC. The data set is described as above. The conditions noted are these: 24 hours. Type of data set: cell-based. As to the method:
as §1
The safety index (SI) was calculated according to the following equation:
^bSafety Index (SI)=IC50(HUVEC)/IC50(Hela)

In data set [6] the test system is HepG2 liver cancer cell lines. Briefly: Cytotoxicity, CCK-8 kit, multi-cell lines (Experiment 1). In kind it is cell-based. The following applies: HepG 2, 24 hours.
The subject of a further data set is HeLa tumors. Description: In vivo tumor suppression experiment. Also noted: species or system nude mice. The conditions noted are these: after 21 days of treatment, once every 2 days. On the procedure: Nude mice carrying HeLa tumors were divided into 4 […], each with 8 mice. […] The dosage was […], and the administration frequency was once every 2 days. The volume of the tumor was calculated with the length and width of the tumor according to the following formula:
Tumor volume (mm^3)=½×length×width^2.
After 21 days, the nude mice of each group were died and dissected. The tumor inhibition was calculated according to the following formula: […]
in which Wc and Wt were the masses of the tumors in the control group and the experimental group, respectively.

The nature of data set [7]: Hematological analysis of liver and kidney function. In kind it is in vivo, nude mice. The conditions noted are these: blood samples after treatment. The source says:
The research indicators included alanine aminotransferase (ALT), urea nitrogen (BUN), triglycerides (TG), creatine kinase (CK), aspartate aminotransferase (AST), creatinine (CREA), high Density lipoprotein (HDLC), and lactate dehydrogenase (LDH).
The kidney function was related to the blood indicators of BUN and CREA and the liver function. The results about alanine aminotransferase (ALT) and aspartate aminotransferase (AST) in the blood of nude mice were shown in FIG. 8.

Data set [8] relates to MCF7. Briefly: Cytotoxicity, CCK-8 kit, multi-cell lines (Experiment 1). The conditions noted are these: MCF7, 24 hours. (Formazan colour is commonly taken as a measure of viable cells.)
Data set [9] deals with COS7 renal epithelial cells. Described as above. Type of data set: cell-based. The conditions noted are these: COS7, 24 hours.
Data set [10] concerns A549. The description is as above. The conditions noted are these: A549, 24 hours.
Data set [11] deals with MDA-MB-231 highly metastatic breast cancer cell line. Described as above. Type of data set: cell-based. The following applies: MDA-MB-231, 24 hours.
Data set [12] deals with DU145 prostate cancer cells. Described as above. Type of data set: cell-based. The conditions noted are these: DU145, 24 hours.
Data set [13] is described as follows: H&E staining analysis of major organs. In kind it is in vivo, nude mice. The conditions noted are these: after treatment. The text has this: Further, the parts such as heart, spleen, lung, liver, and kidney were subjected to the H&E staining analysis.
Data set [14] has as its system HEK293 human renal epithelial cell line. Description: Cytotoxicity, CCK-8 kit, multi-cell lines (Experiment 1). In kind it is cell-based. The conditions noted are these: HEK293, 24 hours.
In data set [15] the test system is HeLa. Described as above. The conditions noted are these: 24 hours.
Description: (§2) The cells were cultured in a cell incubator containing 5% CO2 under the atmosphere of saturated steam at a constant temperature of 37° C. The medium used was a high-sugar Dulbecco's modified Eagle's medium containing 10% fetal bovine serum, 100 μg/mL penicillin and 100 U/mL streptomycin. The cells were grown in a six-well culture plate and passaged every other day. The cytotoxicity of the complex was evaluated by the CCK-8 kit, in which the cells were passed to a 96-well plate containing about 25,000 of cells and 200 µL of medium in each well. After the cells had grown stably and adherently, the medium was changed to complete mediums with different concentrations of the complex to be detected, and a 3-well parallel experiment was performed for each concentration. After culturing in the incubator for 24 hours, the medium was removed and the cells were washed with 100 L of PBS buffer (pH=7.4) for 3 times. Subsequently, 100 L mixture of 10% CCK-8 solution and 90% serum-free medium was added into both the test wells and the control wells, and then was placed in an incubator for culturing. After about 1 hour, the absorption of 450 nm wavelength light in the test and control wells were measured by using a microplate reader, and the cell viabilities (CV) under different concentrations of the complex were calculated according to the following formula: […]
A further data set deals with Raw264.7. The description is as above. Type of data set: cell-based. The conditions noted are these: Raw264.7, 24 hours.
Data set [16] has as its system A375 human malignant melanoma cell line. Described as above. The conditions noted are these: A375, 24 hours.
Description: as §2

Twelve compounds from patent publication US20210253603A1, “MAIN GROUP METAL COMPLEX AND ITS PREPARATION METHOD AND USE” (PEKING UNIVERSITY, priority 2018, published 2021) can be followed below.

Regarding `CC#[N+][Ga-3]123([N+]#CC)[O]c4ccccc4C=[N+]1C(C#N)=C(C#N)[N+]2=Cc1ccccc1[O]3.Cl` [Complex 4], the IC50 (in general, the midpoint of a concentration-inhibition curve) came out at 1.16 µM with A549 [1]; 2200 nM in the data set with A375; 0.59 µM in the data set with SW480; 134 µM with MCF7 [2]; 75.3 µM in the data set with HeLa [3]; 43.5 µM with HepG2. For the same compound, the IC50 in data set [4] is 27.7 µM; in the data set on human microglia CHEM5, 1.64 µM; in [5], 6.37 µM.

Take `CC#[N+][Ga-3]123([N+]#CC)[O]c4cc(N5CCCC5)ccc4C=[N+]1C(C#N)=C(C#N)[N+]2=Cc1ccc(N2CCCC2)cc1[O]3.Cl` [Complex 7]: the IC50 in the data set on A549 [1] stood at 3.56 µM; with A375 it was 1400 nM; in the data set with SW480, 7.58 µM; in the data set on MCF7 [2] it was 14.2 µM; in the data set with HeLa [3] it was 8.61 µM; with HepG2, 10.3 µM. For the same compound, the IC50 is 23.1 µM in [4], 5.71 µM with human microglia CHEM5 and 2.47 µM in data set [5].

Consider `N.N.[Cl][Pt][Cl]` [cisplatin, reference compound], for which the IC50 came to 5.3 ± 0.1 µM in data set [6]; 9.1 ± 0.9 µM in the data set with MCF7 [8]; 6.7 ± 0.6 µM in [9]; 9.4 ± 1.5 µM with A549 [10]; 27 ± 1.3 µM in data set [11]; 2700 ± 100 nM in data set [12]. The IC50 in data set [14] turned out to be 2000 ± 100 nM; in the data set with HeLa [15] it was 5.3 ± 0.3 µM; in the data set with Raw264.7, 10.1 ± 1.2 µM; in [16], 3.4 ± 0.3 µM. In the data set on HeLa tumors, this compound came in with a tumor inhibition of 29.9%. Also, the “effects on liver and kidney function (blood indicators ALT, AST, BUN, CREA)” value in [7] is “acute toxicity against the liver and the kidney”. The “H&E staining of liver and kidney” value in data set [13] was “liver edema and degeneration and kidney swelling”.

On to `CC#[N+][Ga-3]123([N+]#CC)[O]c4cc(N(CC)CC)ccc4C=[N+]1c1ccncc1[N+]2=Cc1ccc(N(CC)CC)cc1[O]3.Cl` [Complex 15], for which the concentration for half-maximal inhibition (IC50) in the data set with A549 [1] was 273 µM; with A375, 215000 nM; in the data set with SW480, 325 µM; in the data set on MCF7 [2], 204 µM; in the data set on HeLa [3] it was 97.4 µM; with HepG2, 89.7 µM. Further, the half-inhibitory concentration (IC50) amounted to 340 µM in data set [4], 298 µM in the data set with human microglia CHEM5 and 75.8 µM in data set [5].

On to `CC#[N+][Ga-3]123([N+]#CC)[O]c4ccccc4C=[N+]1c1ccccc1[N+]2=Cc1ccccc1[O]3.Cl` [Complex 14], for which the IC50 with A549 [1] amounted to 76.5 µM; in the data set with A375, 24000 nM; with SW480 it was 257 µM; with MCF7 [2] it was 53 µM; in the data set with HeLa [3] it was 19.5 µM; with HepG2 it was 38.6 µM. Besides, the concentration for half-maximal inhibition (IC50) in data set [4] stood at 212 µM; in the data set with human microglia CHEM5, 65.1 µM; in data set [5], 163 µM.

Regarding `CC#[N+][Ga-3]123([N+]#CC)[O]c4cc5c(cc4C=[N+]1C(C#N)=C(C#N)[N+]2=Cc1cc2c(cc1[O]3)N(C)CCS2)SCCN5C.Cl` [Complex 12], the IC50 with A549 [1] was 39.3 µM; in the data set on A375 it was 10800 nM; with SW480, 42.6 µM; in the data set with MCF7 [2] it was 43.5 µM; with HeLa [3] it was 45.8 µM; in the data set on HepG2, 34.6 µM. Besides, the IC50 in data set [4] is 89.9 µM; in the data set on human microglia CHEM5, 44.7 µM; in data set [5] it was 58.9 µM.

On to `CC#[N+][Ga-3]123([N+]#CC)[O]c4cc(N(C)C)ccc4C=[N+]1C(C#N)=C(C#N)[N+]2=Cc1ccc(N(C)C)cc1[O]3.Cl` [Complex 6], for which the 50% inhibitory concentration (IC50) was 1.38 µM in the data set with A549 [1]; 70 nM in the data set with A375; 4.85 µM with SW480; 0.47 µM in the data set with MCF7 [2]; 1.38 µM with HeLa [3]; 7.75 µM with HepG2. Further, the IC50 in [4] turned out to be 6.44 µM; in the data set on human microglia CHEM5, 2.27 µM; in [5], 4.09 µM.

In the case of `CC#[N+][Ga-3]123([N+]#CC)[O]c4c(ccc5c4SCCN5C)C=[N+]1C(C#N)=C(C#N)[N+]2=Cc1ccc2c(c1[O]3)SCCN2C.Cl` [Complex 10], the IC50 in the data set with A549 [1] turned out to be 124 µM; in the data set with A375, 91200 nM; in the data set with SW480, 451 µM; with MCF7 [2], 61.7 µM; with HeLa [3], 87.7 µM; in the data set with HepG2, 72.7 µM. Also, the IC50 came out at 322 µM in data set [4], 51.9 µM with human microglia CHEM5 and 332 µM in data set [5].

Turning to `C#CCN(C)c1ccc2c(c1)[O][Ga-3]13([N+]#CC)([N+]#CC)[O]c4cc(N(C)CC#C)ccc4C=[N+]1C(C#N)=C(C#N)[N+]3=C2.Cl` [Complex 8], the half-inhibitory concentration (IC50) in the data set on A549 [1] was found to be 139 µM; in the data set with A375, 229000 nM; in the data set with SW480 it was 572 µM; with MCF7 [2] it was 190 µM; in the data set on HeLa [3] it was 260 µM; in the data set with HepG2 it was 291 µM. Moreover, the results for the concentration for half-maximal inhibition (IC50) (in [4]; in the data set on human microglia CHEM5; in data set [5]) were 71 µM, 236 µM and 203 µM, respectively.

Regarding `C#CCN(C)c1ccc2c(c1)[O][Ga-3]13([N+]#CC)([N+]#CC)[O]c4cc(N(CC)CC)ccc4C=[N+]1C(C#N)=C(C#N)[N+]3=C2.Cl` [Complex 2], the IC50 amounted to 2.29 µM with A549 [1]; 830 nM in the data set with A375; 2.2 µM in the data set on SW480; 5.29 µM with MCF7 [2]; 6.35 µM with HeLa [3]; 8.19 µM in the data set on HepG2. The IC50 in data set [4] was determined as 4.26 µM; in the data set with human microglia CHEM5, 2.82 µM; in data set [5], 1.88 µM.

`CC#[N+][Ga-3]123([N+]#CC)[O]c4cc(N(CC)CC)ccc4C=[N+]1c1ccccc1[N+]2=Cc1ccc(N(CC)CC)cc1[O]3.Cl` [Complex 9]: the IC50 with A549 [1] came out at 1.22 µM; in the data set with A375 it was 1370 nM; with SW480 it was 4.89 µM; in the data set with MCF7 [2] it was 34.8 µM; with HeLa [3], 12.4 µM; in the data set on HepG2, 46.1 µM. Besides, the values for the IC50 (in data set [4]; in the data set with human microglia CHEM5; in [5]) were 33.5 µM, 1.81 µM and 9.33 µM, respectively.

For `CC#[N+][Ga-3]123([N+]#CC)[O]c4cc(N(C)CCCC)ccc4C=[N+]1C(C#N)=C(C#N)[N+]2=Cc1ccc(N(C)CCCC)cc1[O]3.Cl` [Complex 13], the IC50 in the data set with A549 [1] worked out at 2.72 µM; in the data set on A375, 900 nM; in the data set with SW480, 4.1 µM; in the data set with MCF7 [2], 1.74 µM; in the data set on HeLa [3], 21.5 µM; with HepG2, 20.9 µM. The IC50 in data set [4] was found to be 20.6 µM; in the data set on human microglia CHEM5 it was 2.28 µM; in [5] it was 3.5 µM.
